Peptide text beside a SMILES is read from it. * marks the point of attachment. Decanoyl = CCCCCCCCCC(=O)*; CH2Cl = ClC*
Key:
β-DG = experiment: Metalloprotease-dependent shedding and cleavage of dystroglycan in cultured cells (immunoblot); assay type: cell-based; settings: incubation of the cells with inhibitor
Experimental: FIG. 6A-B depicts a modification of dystroglycan by metalloprotease activity. (A) Structure of α-DG and β-DG. α-DG associates non-covalently with β-DG, which spans the plasma membrane. O-linked glycosylation is shown as a chain of circles of varying length, whereas N-linked glycosylation is shown as branches. (B) Immunoblot analysis of α-DG and β-DG levels in cell lines cultured in the presence or absence of the MP inhibitor BB-2516. Cells were cultured in serum-free medium for two days with or without BB-2516 and then total cellular proteins were extracted and subjected to immunoblot analysis of α-DG and β-DG.
To confirm that metalloprotease activity is indeed blocked by the GM6001, the cleavage of known molecules is monitored. Using identically treated cell populations, proteins are extracted and analyzed by immunoblot. These controls include detecting the cleavage of the β-DG subunit, which is evidenced by a shift in the molecular mass of this protein from 43 kDa to 31 kDa in MDA-MB-231 cells using an antibody binding the β-DG cytoplasmic domain (see FIG. 6).
For example, metalloprotease cleavage events are responsible for the shedding of β-DG from the cell surface, and for direct cleavage of the extracellular domain of β-DG, which is detected by the reduction in the molecular mass of β-DG from 43 kD to 31 kD. Both the shedding of β-DG, and the cleavage of β-DG are blocked by the incubation of the cells with the broad-spectrum MMP inhibitors GM6001 or BB2516. Detection of the cleaved form of p-DG can be completely eliminated after just 24 hours exposure to the MMP inhibitor.

[1] = tested on: BT474 and MDA-MB-231 cells; settings: 50 μM, extended periods of time; cited from earlier work
known metalloproteases = settings: 50 μM; cited from earlier work
α-DG = experiment: Immunoprecipitation of the DG complex after furin inhibitor treatment; assay type: cell-based; settings: EpH4, MDA-MB-231 and MDA-MB-468 cells

Row | SMILES | cleavage of β-DG (43 kD to 31 kD) (β-DG) | shedding of β-DG from the cell surface (β-DG) | cell viability on extended exposure [1] | block of activity of known metalloproteases (known metalloproteases) | α-DG band position (α-DG)
1 | CNC(=O)[C@H](Cc1c[nH]c2ccccc12)NC(=O)[C@@H](CC(=O)NO)CC(C)C [GM6001] | blocked | blocked | without loss of cell viability | more than sufficient to block the activity of known metalloproteases | 
2 | CNC(=O)[C@@H](NC(=O)[C@H](CC(C)C)[C@H](O)C(=O)NO)C(C)(C)C [BB2516] | blocked | blocked |  |  | 
3 | CCCCCCCCCC(=O)N[C@@H](CCCN=C(N)N)C(=O)N[C@H](C(=O)N[C@@H](CCCCN)C(=O)N[C@@H](CCCN=C(N)N)C(=O)CCl)C(C)C [CMK] (Decanoyl-RVKR-CH2Cl) |  |  |  |  | shifted upward in all cells
